Source: patent publication US20260159481A1, “INDOLE DERIVATIVE WITH SUBSTITUENT AND PHARMACEUTICAL USE” (MITOIMMUNE THERAPEUTICS INC., priority 2023, published 2026)

Key:
Assay type in all cases: cell-based
MLE-12 cells [1] = experiment: Inhibitory effect on mitochondrial lipid ROS (MitoPerOx) under RSL3; details: 1 μM RSL3, 2 hours, compound 0.01, 0.1, 1 μM, FIG. 2
Method: To confirm the protective effect against mito-lipid ROS in lung epithelial cells, MLE-12 cells were seeded at 2×10^5 cells/well in a 12-well plate and cultured for 18 to 24 hours. Example Compound 29 and Fer-1 were diluted to have the final concentration of 0.01, 0.1, and 1 μM and added to each well, and the cells were cultured for 10 minutes. Afterward, RSL3 was treated to have the final concentration of 1 M, and the cells were cultured for 2 hours. To confirm the inhibitory effect on mito-lipid ROS, the fluorescent mitochondria-targeted lipid peroxidation probe MitoPerOx (abcam; ab146820) was used. According to the manufacturer's protocol, MitoPerOx was diluted in the culture broth to have the final concentration of 1 μM and treated, and fluorescence staining was performed after a 30-minute reaction. The MLE-12 cells that were fluorescence-stained with MitoPerOx were detached from the 12-well plate using 0.25% trypsin-EDTA and transferred to a microtube. Fluorescence (Ex/Em=495 nm/520-590 nm) was measured using BD FACSLyric™, and the relative change compared to the control was calculated.

[2] = tested on: adrenal medullary cells (PC-12); experiment: Protective effect against cell death due to RSL3 (LDH release), PC-12; details: RSL3 0.3 μM, 24 hours
Method: (§1) To confirm cell death protection effects on cardiac cells, adrenal medullary cells, renal fibroblasts, retinal epithelial cells, lung epithelial cells, renal proximal tubular epithelial cells, hippocampal neurons and fibroblasts, each type of cells were seeded at 4×10^3 to 1.2×10^4 cells/well in a 96-well plate and cultured for 18 to 24 hours. The example compounds were diluted to have the final concentration of 0.001, 0.003, 0.01, 0.3, 1, 3, and 10 μM, respectively, and then added to different wells and cultured for 15 to 20 minutes. […] To confirm the cell death protection effect of the example compounds, the degree of extracellular secretion of lactate dehydrogenase (LDH) was measured using a cytotoxicity LDH assay kit [Dojindo; CK12]. Briefly, at the end of 24-hour treatment of each type of cells with RSL3, 70 μL of the supernatant was taken from the 96-well plate where the cells were cultured and transferred to a new 96-well plate. The assay buffer included in the kit was added at 70 μL/well (equal to that of the sample) and the plate was covered with foil to block light and allowed to react for 15 to 20 minutes at room temperature. While observing a color change of the sample, 35 µL/well of a stop solution was added, an absorbance at 490 nm was measured using an iD3 spectrophotometer, and an EC50 value was calculated.

[3] = tested on: retinal epithelial cells (ARPE-19); experiment: Protective effect against cell death due to RSL3 (LDH release), ARPE-19; details: RSL3 0.3 μM, 24 hours
Method: as §1

[4] = tested on: lung epithelial cells (MLE-12); experiment: Protective effect against cell death due to RSL3 (LDH release), MLE-12; details: 24 hours
Method: as §1

[5] = tested on: renal fibroblasts (NRK-49F); experiment: Protective effect against cell death due to RSL3 (LDH release), NRK-49F; details: RSL3 3 μM, 24 hours
Method: as §1

MLE-12 cells [6] = experiment: Inhibitory effect on intracellular accumulation of ferrous ions (FerroOrange) under RSL3; details: 1 μM RSL3, 8 hours, FIG. 5
Method: To confirm the inhibitory effect on intracellular accumulation of ferrous ions in lung epithelial cells, MILE-12 cells were seeded at 2×10^5 cells/well in a 12-well plate and cultured for 18 to 24 hours. Example Compound 29 and Fer-1 were diluted to have the final concentration of 0.01, 0.1, 1, and 10 μM and added to each well, and the cells were cultured for 10 minutes. Afterward, RSL3 was treated to have the final concentration of 1 M, and the cells were cultured for 8 hours. To confirm the inhibitory effect on intracellular accumulation of ferrous ions, FerroOrange (DOJINDO; F374) was used. According to the manufacturer's protocol, FerroOrange was diluted in the culture broth to have the final concentration of 1 M and added, and fluorescence staining was performed after a 30-minute reaction. The MLE-12 cells that were fluorescence-stained with FerroOrange were detached from the 12-well plate using 0.25% trypsin-EDTA and transferred to a microtube. Fluorescence (Ex/Em=580 nm/[…]) was measured using BD FACSLyric™, and the relative change compared to the control (RSL3-untreated group) was calculated.

MLE-12 cells [7] = experiment: Inhibitory effect on mitochondrial accumulation of ferrous ions (Mito-FerroGreen) under RSL3; details: 1 μM RSL3, 8 hours, compound 0.01, 0.1, 1 μM, FIG. 6
Method: To confirm the inhibitory effect on the mitochondrial accumulation of ferrous ions in lung epithelial cells, MILE-12 cells were seeded at 2×10^5 cells/well in a 12-well plate and cultured for 18 to 24 hours. Example Compound 29 and Fer-1 were diluted to have the final concentration of 0.01, 0.1, and 1 μM and added to each well, and the cells were cultured for 10 minutes. Afterward, RSL3 was treated to have the final concentration of 1 μM, and the cells were cultured for 8 hours. To confirm the inhibitory effect on the mitochondrial accumulation of ferrous ions, Mito-FerroGreen (DOJINDO; M489) was used. According to the manufacturer's protocol, the Mito-FerroGreen was diluted in the culture broth to have the final concentration of 1 μM, and fluorescence staining was performed after a 30-minute reaction. The MLE-12 cells that were fluorescence-stained with Mito-FerroGreen were detached from the 12-well plate using 0.25% trypsin-EDTA and transferred to a microtube. Fluorescence (Ex/Em=505 nm/535 nm) was measured using, BD FACSLyric™, and the relative change compared to the control was calculated.

[8] = tested on: renal proximal tubular epithelial cells (HK2); experiment: Protective effect against cell death due to RSL3 (LDH release), HK2; details: RSL3 0.3 μM, 24 hours
Method: as §1

MLE-12 cells [9] = experiment: Inhibitory effect on mito-ROS (MitoSOX) under RSL3; details: 1 μM RSL3, 2 hours, FIG. 4
Method: To confirm the protective effect against mito-ROS in lung epithelial cells, MILE-12 cells were seeded at 2×10^5 cells/well in a 12-well plate and cultured for 18 to 24 hours. Example Compound 29 and Fer-1 were diluted to have the final concentration of 0.01, 0.1, 1 and 10 M and added to each well, and the cells were cultured for 10 minutes. Afterward, RSL3 was treated to have the final concentration of 1 M, and the cells were cultured for 2 hours. To confirm the inhibitory effect on mito-ROS, the mitochondrial superoxide indicator MitoSOX™ (Invitrogen™; C6827) was used. According to the manufacturer's protocol, MitoSOX was diluted in the culture broth to have the final concentration of […], and fluorescence staining was performed after a 30-minute reaction. The MLE-12 cells fluorescence-strained with MitoSOX were detached from the 12-well plate using 0.25% trypsin-EDTA and transferred to a microtube, and fluorescence (Ex/Em=˜396 nm/610 nm) was measured using BD FACSLyric™, and the relative change compared to the control (RSL3-untreated group) was calculated.

[10] = tested on: hippocampal neurons (HT-22); experiment: Protective effect against cell death due to RSL3 (LDH release), HT-22; details: RSL3 0.3 μM, 24 hours
Method: as §1

Row | SMILES | mito-lipid ROS increased by RSL3 treatment (MLE-12 cells [1]) | EC50 ([2]; Rattus norvegicus) [nM] | EC50 ([3]; Homo sapiens) [nM] | EC50 ([4]; MLE12, RSL3 1 μM) [nM] | EC50 ([5]; Rattus norvegicus) [nM] | intracellular ferrous ions increased by RSL3 treatment (MLE-12 cells [6]) | mitochondrial ferrous ions increased by RSL3 treatment (MLE-12 cells [7]) | EC50 ([8]; Epithelial cell) [nM] | mito-ROS increased by RSL3 treatment (MLE-12 cells [9]) | EC50 ([10]; Mus musculus) [nM] | EC50 [2] [nM] | EC50 [3] [nM] | EC50 ([4]; RSL3 1 μM) [nM] | EC50 [5] [nM] | EC50 [8] [nM] | EC50 [10] [nM]
1 | OCCOCCOCc1cc(NC2CCOCC2)c2[nH]c(-c3ccccc3)cc2c1 [Example 29, 2-(2-((2-phenyl-7-((tetrahydro-2H-pyran-4-yl)amino)-1H-indol-5-yl)methoxy)ethoxy)ethan-1-ol] | significantly decreased at 1 μM | 100 to 1000 | ≤ 100 | ≤ 100 | ≤ 100 | significantly decreased at 0.1 and 1 μM | significantly reduced mitochondrial ferrous ion levels at 0.01, 0.1, and 1 M | ≤ 100 | significantly decreased at 0.01, 0.1, and 1 μM | ≤ 100 |  |  |  |  |  | 
2 | CCOC(=O)c1ccc(NC2CCCCC2)c(N)c1 [Fer-1, ferrostatin-1, reference compound] | significantly decreased at 1 μM |  |  |  |  | significantly decreased at 0.1 and 1 μM | significantly reduced mitochondrial ferrous ion levels at 0.1 and 1 μM |  | significantly decreased at 0.01, 0.1, and 1 μM |  | ≤ 100 | ≤ 100 | 100 to 1000 | ≤ 100 | ≤ 100 | 100 to 1000
